Measured values: US6770596B1, “Fused tricyclic compounds, process for their preparation, and herbicidal compositions containing them” (Ishihara Sangyo Kaisha Ltd., priority 2002, dated 2004)

Experiments:
Format in all cases: in vivo
[1] = test system: redroot pigweed (Amaranthus retroflexus, AMR); assay: Post-emerge test, redroot pigweed; settings: 250 g ai/ha, 14 days after application, rating scale 0-100 (0 no damage, 100 complete death)
Procedure, shortened: (§1)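 Greenhouse pot plants in sandy loam were sown 8-21 days before treatment and sprayed at about the 2-3 leaf stage. The spray was acetone solution plus 0.25% v/v non-ionic surfactant, 187 l/ha, at 8-1000 g ai/ha from a track sprayer. Phytotoxicity was scored 0-100 (0 no damage, 100 all plants dead) 14 days later.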

[2] = test system: lambsquarters (Chenopodium album, CHA); assay: Post-emerge test, lambsquarters; settings: 250 g ai/ha, 14 days after application, rating scale 0-100 (0 no damage, 100 complete death)
Procedure, shortened: as §1

[3] = test system: velvetleaf (Abutilon theophrasti, ABT); assay: Pre-emerge test, velvetleaf; settings: 250 g ai/ha, 14 days after application, rating scale 0-100 (0 no damage, 100 complete death)
Procedure, shortened: (§2)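 Compounds are applied in acetone to freshly sown soil (planted one day earlier) at 8 g ai/ha up to 1000 g ai/ha via track sprayer. Plants are assessed at 14 days on a 0–100 injury scale.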

[4] = test system: upland rice (Oryza sp., var.Tebonnet, RICE); assay: Post-emerge test, crop damage upland rice; settings: post-emerge, 250 g ai/ha, 14 days after application, rating scale 0-100 (0 no damage, 100 complete death)
Procedure, shortened: as §1

[5] = test system: lambsquarters (Chenopodium album, CHA); assay: Pre-emerge test, lambsquarters; settings: 250 g ai/ha, 14 days after application, rating scale 0-100 (0 no damage, 100 complete death)
Procedure, shortened: as §2

[6] = test system: ivyleaf morningglory (Ipomoea hederacea, IPH); assay: Pre-emerge test, ivyleaf morningglory; settings: 250 g ai/ha, 14 days after application, rating scale 0-100 (0 no damage, 100 complete death)
Procedure, shortened: as §2

[7] = test system: ivyleaf morningglory (Ipomoea hederacea, IPH); assay: Post-emerge test, ivyleaf morningglory; settings: 250 g ai/ha, 14 days after application, rating scale 0-100 (0 no damage, 100 complete death)
Procedure, shortened: as §1

[8] = test system: redroot pigweed (Amaranthus retroflexus, AMR); assay: Pre-emerge test, redroot pigweed; settings: 250 g ai/ha, 14 days after application, rating scale 0-100 (0 no damage, 100 complete death)
Procedure, shortened: as §2

[9] = test system: large crabgrass (Digitaria sanguinalis, DIS); assay: Pre-emerge test, large crabgrass; settings: 250 g ai/ha, 14 days after application, rating scale 0-100 (0 no damage, 100 complete death)
Procedure, shortened: as §2

[10] = test system: field corn (Zea mays L., var. Dekalb 535, CORN); assay: Pre-emerge test, crop damage field corn; settings: pre-emerge, 250 g ai/ha, 14 days after application, rating scale 0-100 (0 no damage, 100 complete death)
Procedure, shortened: (§3)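 Efficacy values are 0–100 phytotoxicity scores (0 no damage, 100 complete death) recorded 14 days post-application. Spray was delivered pre-emergence at 187 l/ha with rates of 8–1000 g ai/ha, using acetone as solvent.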

[11] = test system: barnyardgrass (Echinachloa crus-galli, ECC); assay: Post-emerge test, barnyardgrass; settings: 250 g ai/ha, 14 days after application, rating scale 0-100 (0 no damage, 100 complete death)
Procedure, shortened: as §1

[12] = test system: wheat (Triticum aestivum); assay: Pre-emerge test, crop damage wheat; settings: pre-emerge, 250 g ai/ha, 14 days after application, rating scale 0-100 (0 no damage, 100 complete death)
Procedure, shortened: as §3

[13] = test system: cocklebur (Xanthium strumariunt, XAS); assay: Pre-emerge test, cocklebur; settings: 250 g ai/ha, 14 days after application, rating scale 0-100 (0 no damage, 100 complete death)
Procedure, shortened: as §2

[14] = test system: velvetleaf (Abutilon theophrasti, ABT); assay: Post-emerge test, velvetleaf; settings: 250 g ai/ha, 14 days after application, rating scale 0-100 (0 no damage, 100 complete death)
Procedure, shortened: as §1

[15] = test system: soybean (Glycine max L., var. Pella 86, SOY); assay: Pre-emerge test, crop damage soybean; settings: pre-emerge, 250 g ai/ha, 14 days after application, rating scale 0-100 (0 no damage, 100 complete death)
Procedure, shortened: as §3

[16] = test system: green foxtail (Setaria viridis, SEV); assay: Post-emerge test, green foxtail; settings: 250 g ai/ha, 14 days after application, rating scale 0-100 (0 no damage, 100 complete death)
Procedure, shortened: as §1

[17] = test system: johnsongrass (Sorghum halepense, SOH); assay: Post-emerge test, johnsongrass; settings: 250 g ai/ha, 14 days after application, rating scale 0-100 (0 no damage, 100 complete death)
Procedure, shortened: as §1

[18] = test system: sicklepod (Cassia obtusifolia, CAO); assay: Post-emerge test, sicklepod; settings: 250 g ai/ha, 14 days after application, rating scale 0-100 (0 no damage, 100 complete death)
Procedure, shortened: as §1

[19] = test system: large crabgrass (Digitaria sanguinalis, DIS); assay: Post-emerge test, large crabgrass; settings: 250 g ai/ha, 14 days after application, rating scale 0-100 (0 no damage, 100 complete death)
Procedure, shortened: as §1

[20] = test system: common ragweed (Ambrosia artemisiifolia L., AML); assay: Pre-emerge test, common ragweed; settings: 250 g ai/ha, 14 days after application, rating scale 0-100 (0 no damage, 100 complete death)
Procedure, shortened: as §2

[21] = test system: cocklebur (Xanthium strumariunt, XAS); assay: Post-emerge test, cocklebur; settings: 250 g ai/ha, 14 days after application, rating scale 0-100 (0 no damage, 100 complete death)
Procedure, shortened: as §1

[22] = test system: wheat (Triticum aestivum); assay: Post-emerge test, crop damage wheat; settings: post-emerge, 250 g ai/ha, 14 days after application, rating scale 0-100 (0 no damage, 100 complete death)
Procedure, shortened: as §1

[23] = test system: common ragweed (Ambrosia artemisiifolia L., AML); assay: Post-emerge test, common ragweed; settings: 250 g ai/ha, 14 days after application, rating scale 0-100 (0 no damage, 100 complete death)
Procedure, shortened: as §1

[24] = test system: sicklepod (Cassia obtusifolia, CAO); assay: Pre-emerge test, sicklepod; settings: 250 g ai/ha, 14 days after application, rating scale 0-100 (0 no damage, 100 complete death)
Procedure, shortened: as §2

[25] = test system: field corn (Zea mays L., var. Dekalb 535, CORN); assay: Post-emerge test, crop damage field corn; settings: post-emerge, 250 g ai/ha, 14 days after application, rating scale 0-100 (0 no damage, 100 complete death)
Procedure, shortened: as §1

[26] = test system: green foxtail (Setaria viridis, SEV); assay: Pre-emerge test, green foxtail; settings: 250 g ai/ha, 14 days after application, rating scale 0-100 (0 no damage, 100 complete death)
Procedure, shortened: as §2

[27] = test system: barnyardgrass (Echinachloa crus-galli, ECC); assay: Pre-emerge test, barnyardgrass; settings: 250 g ai/ha, 14 days after application, rating scale 0-100 (0 no damage, 100 complete death)
Procedure, shortened: as §2

[28] = test system: johnsongrass (Sorghum halepense, SOH); assay: Pre-emerge test, johnsongrass; settings: 250 g ai/ha, 14 days after application, rating scale 0-100 (0 no damage, 100 complete death)
Procedure, shortened: as §2

[29] = test system: soybean (Glycine max L., var. Pella 86, SOY); assay: Post-emerge test, crop damage soybean; settings: post-emerge, 250 g ai/ha, 14 days after application, rating scale 0-100 (0 no damage, 100 complete death)
Procedure, shortened: as §1

[30] = test system: upland rice (Oryza sp., var.Tebonnet, RICE); assay: Pre-emerge test, crop damage upland rice; settings: pre-emerge, 250 g ai/ha, 14 days after application, rating scale 0-100 (0 no damage, 100 complete death)
Procedure, shortened: as §3

| Compound | Post-emerge Herbicidal Activity AMR (phytotoxicity rating) [1] | Post-emerge Herbicidal Activity CHA (phytotoxicity rating) [2] | Pre-emerge Herbicidal Activity ABT (phytotoxicity rating) [3] | Post-emerge crop damage RICE (phytotoxicity rating) [4] | Pre-emerge Herbicidal Activity CHA (phytotoxicity rating) [5] | Pre-emerge Herbicidal Activity IPH (phytotoxicity rating) [6] | Post-emerge Herbicidal Activity IPH (phytotoxicity rating) [7] | Pre-emerge Herbicidal Activity AMR (phytotoxicity rating) [8] | Pre-emerge Herbicidal Activity DIS (phytotoxicity rating) [9] | Pre-emerge crop damage CORN (phytotoxicity rating) [10] | Post-emerge Herbicidal Activity ECC (phytotoxicity rating) [11] | Pre-emerge crop damage WHEAT (phytotoxicity rating) [12] | Pre-emerge Herbicidal Activity XAS (phytotoxicity rating) [13] | Post-emerge Herbicidal Activity ABT (phytotoxicity rating) [14] | Pre-emerge crop damage SOY (phytotoxicity rating) [15] | Post-emerge Herbicidal Activity SEV (phytotoxicity rating) [16] | Post-emerge Herbicidal Activity SOH (phytotoxicity rating) [17] | Post-emerge Herbicidal Activity CAO (phytotoxicity rating) [18] | Post-emerge Herbicidal Activity DIS (phytotoxicity rating) [19] | Pre-emerge Herbicidal Activity AML (phytotoxicity rating) [20] | also measured |
| --- | --- | --- | --- | --- | --- | --- | --- | --- | --- | --- | --- | --- | --- | --- | --- | --- | --- | --- | --- | --- | --- |
| Cn1nc(-c2c(F)cc3c4c2NC(=O)CN4C(=O)C(C)(C)O3)c(Cl)c1OC(F)F [1-59] | 100 | 100 | 100 | 55 | 100 | 85 | 100 | 100 | 99 | 40 | 99 | 45 | 60 | 100 | 15 | 99 | 65 | 70 | 99 | 100 | Post-emerge Herbicidal Activity XAS (phytotoxicity rating) [21]: 100; Post-emerge crop damage WHEAT (phytotoxicity rating) [22]: 35; Post-emerge Herbicidal Activity AML (phytotoxicity rating) [23]: 80; Pre-emerge Herbicidal Activity CAO (phytotoxicity rating) [24]: 99; Post-emerge crop damage CORN (phytotoxicity rating) [25]: 10; Pre-emerge Herbicidal Activity SEV (phytotoxicity rating) [26]: 100; Pre-emerge Herbicidal Activity ECC (phytotoxicity rating) [27]: 99; Pre-emerge Herbicidal Activity SOH (phytotoxicity rating) [28]: 100; Post-emerge crop damage SOY (phytotoxicity rating) [29]: 45; Pre-emerge crop damage RICE (phytotoxicity rating) [30]: 50 |
| CC1Oc2cc(F)c(-c3nn(C)c(C(F)(F)F)c3Cl)c3c2N(C1=O)C(C(C)C)C(=O)N3 (mixture of isomers) [1-53] | 100 | 100 | 100 | 0 | 100 | 95 | 100 | 100 | 98 | 25 | 70 | 15 | 100 | 100 | 50 | 60 | 0 | 50 | 0 | 95 | Post-emerge Herbicidal Activity XAS (phytotoxicity rating) [21]: 100; Post-emerge crop damage WHEAT (phytotoxicity rating) [22]: 10; Post-emerge Herbicidal Activity AML (phytotoxicity rating) [23]: 75; Pre-emerge Herbicidal Activity CAO (phytotoxicity rating) [24]: 100; Post-emerge crop damage CORN (phytotoxicity rating) [25]: 5; Pre-emerge Herbicidal Activity SEV (phytotoxicity rating) [26]: 99; Pre-emerge Herbicidal Activity ECC (phytotoxicity rating) [27]: 95; Pre-emerge Herbicidal Activity SOH (phytotoxicity rating) [28]: 90; Post-emerge crop damage SOY (phytotoxicity rating) [29]: 20; Pre-emerge crop damage RICE (phytotoxicity rating) [30]: 5 |
| CC1Oc2cc(F)c(-c3nn(C)c(OC(F)F)c3Cl)c3c2N(CC(=O)N3)C1=O (stereo not drawn) [1-56] | 100 | 100 | 100 | 99 | 100 | 100 | 100 | 100 | 100 | 50 | 100 | 55 | 100 | 100 | 15 | 100 | 85 | 100 | 100 | 100 | Post-emerge Herbicidal Activity XAS (phytotoxicity rating) [21]: 100; Post-emerge crop damage WHEAT (phytotoxicity rating) [22]: 30; Post-emerge Herbicidal Activity AML (phytotoxicity rating) [23]: 100; Pre-emerge Herbicidal Activity CAO (phytotoxicity rating) [24]: 100; Post-emerge crop damage CORN (phytotoxicity rating) [25]: 20; Pre-emerge Herbicidal Activity SEV (phytotoxicity rating) [26]: 100; Pre-emerge Herbicidal Activity ECC (phytotoxicity rating) [27]: 100; Pre-emerge Herbicidal Activity SOH (phytotoxicity rating) [28]: 100; Post-emerge crop damage SOY (phytotoxicity rating) [29]: 100; Pre-emerge crop damage RICE (phytotoxicity rating) [30]: 75 |
